{"source": "patent US12128035B2", "about": "“Activating pyruvate kinase R” (Novo Nordisk Health Care AG, priority 2021, dated 2024)", "key": {"[1]": {"test_system": "H295R adreno-cortical carcinoma cell line", "experiment": "Steroid modulation screen in vitro", "format": "cell-based", "conditions": "tested at 200 to 0.0002 μM; only at top concentration", "experimental": "To assess potential effects on steroidogenesis, Compound 1 was screened for steroid modulation in vitro using the H295R adreno-cortical carcinoma cell line (at 200 to 0.0002 μM) and in an assay to monitor cell viability (MTT Kit). Compound 1 indicated steroid modulation potential (% over vehicle) only at 200 μM, the top concentration tested, with 100% cellular viability at concentrations ≤20 μM (90% viability at 200 μM)."}, "[2]": {"test_system": "panels of receptors, enzymes, ion channels, and kinases", "experiment": "Preclinical safety: arrhythmia risk, mutagenicity, nonspecific binding panels", "conditions": "in vitro panels"}}, "data": [{"smiles": "O=C([C@H](CO)c1ccccc1)N1CC2=C(C1)CN(S(=O)(=O)c1cnc3c(c1)OCCO3)C2", "note": "(single isomer, unassigned) [Compound 1]", "values": [{"measurement": "concentration indicating steroid modulation potential (% over vehicle)", "setting": "[1]", "value": 200, "unit": "µM"}, {"measurement": "preclinical evidence of arrhythmia risk, mutagenicity, nonspecific binding", "setting": "[2]", "value": "has not demonstrated any preclinical evidence of arrhythmia risk, mutagenicity, or nonspecific binding activity"}]}]}
